Data: ChEMBL document CHEMBL5316344, “Homologation of the Alkyl Side Chain of Antimitotic Phenyl 4-(2-Oxo-3-alkylimidazolidin-1-yl)benzenesulfonate Prodrugs Selectively Targeting CYP1A1-Expressing Breast Cancers Improves Their Stability in Rodent Liver Microsomes” (J Med Chem, 2023)

Columns and labels:
[1] = system: M21; assay: Antiproliferative activity against human M21 cells assessed as cell growth inhibition incubated for 48 hrs by sulforhodamine B assay; format: functional, cell-based; conditions: M21, 48 h
[2] = system: MCF7; assay: Antiproliferative activity against human MCF7 cells expressing CYP1A1 assessed as cell growth inhibition incubated for 48 hrs by sulforhodamine B assay; format: functional, cell-based; conditions: MCF7, 48 h
[3] = system: HT-29; assay: Antiproliferative activity against human HT-29 cells assessed as cell growth inhibition incubated for 48 hrs by sulforhodamine B assay; format: functional, cell-based; conditions: HT-29, 48 h
[4] = Selectivity ratio, ratio of IC50 for antiproliferative activity against human M21 cells to IC50 for antiproliferative activity against human MCF7 cells expressing CYP1A1; format: functional
[5] = Selectivity ratio, ratio of IC50 for antiproliferative activity against human HT-29 cells to IC50 for antiproliferative activity against human MCF7 cells expressing CYP1A1; format: functional
[6] = Stability in rat liver microsomes assessed as half life incubated for 60 mins by HPLC analysis; format: ADME, Microsome
[7] = Stability in human liver microsomes assessed as half life incubated for 60 mins by HPLC analysis; format: ADME, Microsome
[8] = Stability in mouse liver microsomes assessed as half life incubated for 60 mins by HPLC analysis; format: ADME, Microsome
[9] = Stability in rat liver microsomes assessed as intrinsic clearance incubated for 60 mins by HPLC analysis; format: ADME, Microsome; conditions: read-out: CLH
[10] = Stability in human liver microsomes assessed as intrinsic clearance incubated for 60 mins by HPLC analysis; format: ADME, Microsome; conditions: read-out: CLH
[11] = Stability in mouse liver microsomes assessed as intrinsic clearance incubated for 60 mins by HPLC analysis; format: ADME, Microsome; conditions: read-out: CLH
[12] = target: T1, Cytochrome P450 1A1 (Homo sapiens, UniProt P04798); assay: Binding affinity to human CYP1A1 assessed as inhibition of conversion of 7-ethoicyresorufin into fluorescent resorufin by measuring inhibition constant preincubated for 5 mins followed by […] addition measured every minute for 15 mins by EROD assay; format: ADME
T1 sequence (P04798 whole entry): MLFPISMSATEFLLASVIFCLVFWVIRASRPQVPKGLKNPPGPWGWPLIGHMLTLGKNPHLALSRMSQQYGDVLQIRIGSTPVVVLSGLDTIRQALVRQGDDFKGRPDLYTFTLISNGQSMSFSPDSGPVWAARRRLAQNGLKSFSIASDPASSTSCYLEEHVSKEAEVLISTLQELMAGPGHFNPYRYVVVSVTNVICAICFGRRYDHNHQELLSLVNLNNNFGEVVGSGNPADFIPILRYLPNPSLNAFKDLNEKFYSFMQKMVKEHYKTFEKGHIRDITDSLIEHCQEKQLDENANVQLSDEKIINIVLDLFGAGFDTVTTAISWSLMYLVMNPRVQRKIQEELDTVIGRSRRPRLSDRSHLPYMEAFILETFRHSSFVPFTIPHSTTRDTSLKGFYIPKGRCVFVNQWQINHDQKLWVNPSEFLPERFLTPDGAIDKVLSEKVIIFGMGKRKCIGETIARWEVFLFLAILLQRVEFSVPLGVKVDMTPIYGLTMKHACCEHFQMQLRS

IC50 [2]	IC50 [3]	Structure (SMILES)	IC50 [1]	other results
> 1250 nM	> 1250 nM	CCCCCCCCN1CCN(c2ccc(S(=O)(=O)Oc3cc(OC)c(OC)c(OC)c3)cc2)C1=O	> 1250 nM	–
1100 nM	> 1250 nM	CCCCCCN1CCN(c2ccc(S(=O)(=O)Oc3cccc(I)c3)cc2)C1=O	> 1250 nM	Ratio IC50 [4]: >1.1; Ratio IC50 [5]: >1.1
400 nM	> 2500 nM	CCCCCCN1CCN(c2ccc(S(=O)(=O)Oc3cc(F)cc(F)c3)cc2)C1=O	> 2500 nM	Ratio IC50 [4]: >6.3; Ratio IC50 [5]: >6.3
> 12500 nM	> 12500 nM	CCCCCN1CCN(c2ccc(S(=O)(=O)Oc3ccccc3OC)cc2)C1=O	> 12500 nM	–
–	–	CCCCN1CCN(c2ccc(S(=O)(=O)Oc3cccc(I)c3)cc2)C1=O	–	half-life [6]: 12.7 min; half-life [7]: 100 min; half-life [8]: 12.3 min; microsomal CLint [9]: 109 µL/min/mg; microsomal CLint [10]: 14 µL/min/mg; microsomal CLint [11]: 109 µL/min/mg
> 1250 nM	> 1250 nM	CCCCCCCCN1CCN(c2ccc(S(=O)(=O)Oc3cccc(Cl)c3)cc2)C1=O	> 1250 nM	–
–	–	CCCCN1CCN(c2ccc(S(=O)(=O)Oc3cccc(Cl)c3)cc2)C1=O	–	half-life [6]: 22 min; half-life [7]: 126 min; half-life [8]: 13.3 min; microsomal CLint [9]: 65 µL/min/mg; microsomal CLint [10]: 11 µL/min/mg; microsomal CLint [11]: 104 µL/min/mg
> 2500 nM	> 2500 nM	CCCCCCN1CCN(c2ccc(S(=O)(=O)Oc3ccc(F)c(F)c3)cc2)C1=O	> 2500 nM	–
–	–	CCCN1CCN(c2ccc(S(=O)(=O)Oc3cc(OC)c(OC)c(OO)c3)cc2)C1=O	–	half-life [6]: 71 min; half-life [7]: 109 min; half-life [8]: 8 min; microsomal CLint [9]: 19.5 µL/min/mg; microsomal CLint [10]: 13 µL/min/mg; microsomal CLint [11]: 174 µL/min/mg
> 1250 nM	> 1250 nM	CCCCCCCCN1CCN(c2ccc(S(=O)(=O)Oc3cc(F)cc(F)c3)cc2)C1=O	> 1250 nM	–
1000 nM	> 12500 nM	CCCCCN1CCN(c2ccc(S(=O)(=O)Oc3cc(F)cc(F)c3)cc2)C1=O	> 12500 nM	Ratio IC50 [4]: >13; Ratio IC50 [5]: >13
> 1250 nM	> 1250 nM	CCCCCCCCN1CCN(c2ccc(S(=O)(=O)Oc3cccc(Br)c3)cc2)C1=O	> 1250 nM	–
> 1250 nM	> 1250 nM	CCCCCCN1CCN(c2ccc(S(=O)(=O)Oc3ccc(OC)cc3)cc2)C1=O	> 1250 nM	–
> 1250 nM	> 1250 nM	CCCCCCCCN1CCN(c2ccc(S(=O)(=O)Oc3ccccc3)cc2)C1=O	> 1250 nM	–
1200 nM	> 12500 nM	CCCCCN1CCN(c2ccc(S(=O)(=O)Oc3cccc(F)c3)cc2)C1=O	> 12500 nM	Ratio IC50 [4]: >10; Ratio IC50 [5]: >10
700 nM	> 12500 nM	CCCCCN1CCN(c2ccc(S(=O)(=O)Oc3ccc(OC)c(OC)c3)cc2)C1=O	500 nM	Ratio IC50 [4]: >18; Ratio IC50 [5]: >18
250 nM	> 1250 nM	CCCCCCN1CCN(c2ccc(S(=O)(=O)Oc3cc(Cl)cc(Cl)c3)cc2)C1=O	> 1250 nM	Ratio IC50 [4]: >5; Ratio IC50 [5]: >5
> 2500 nM	> 2500 nM	CCCCCCCCN1CCN(c2ccc(S(=O)(=O)Oc3cc(OC)cc(OC)c3)cc2)C1=O	> 2500 nM	–
260 nM	> 12500 nM	CCCCCN1CCN(c2ccc(S(=O)(=O)Oc3cccc(OC)c3)cc2)C1=O	> 12500 nM	Ratio IC50 [4]: >48; Ratio IC50 [5]: >48
> 1250 nM	> 1250 nM	CCCCCCN1CCN(c2ccc(S(=O)(=O)Oc3ccc(OC)c(OC)c3)cc2)C1=O	> 1250 nM	–
> 1250 nM	> 1250 nM	CCCCCCN1CCN(c2ccc(S(=O)(=O)Oc3cccc(Br)c3)cc2)C1=O	> 1250 nM	–
–	–	CCCCN1CCN(c2ccc(S(=O)(=O)Oc3cc(Cl)cc(Cl)c3)cc2)C1=O	–	half-life [6]: 47 min; half-life [7]: 89 min; half-life [8]: 15.4 min; microsomal CLint [9]: 29 µL/min/mg; microsomal CLint [10]: 16 µL/min/mg; microsomal CLint [11]: 90 µL/min/mg
> 2500 nM	> 2500 nM	CCCCCCN1CCN(c2ccc(S(=O)(=O)Oc3ccccc3)cc2)C1=O	> 2500 nM	–

IC50 [2]	IC50 [3]	Structure (SMILES)	IC50 [1]	other results
300 nM	> 12500 nM	CCCCCN1CCN(c2ccc(S(=O)(=O)Oc3cccc(Br)c3)cc2)C1=O	> 12500 nM	Ratio IC50 [4]: >42; Ratio IC50 [5]: >42
120 nM	> 1250 nM	CCCCCCN1CCN(c2ccc(S(=O)(=O)Oc3cc(Br)cc(Br)c3)cc2)C1=O	730 nM	Ratio IC50 [4]: 6.1; Ratio IC50 [5]: >10
> 1250 nM	> 1250 nM	CCCCCCCCN1CCN(c2ccc(S(=O)(=O)Oc3ccc(F)c(F)c3)cc2)C1=O	> 1250 nM	–
> 12500 nM	> 12500 nM	CCCCCN1CCN(c2ccc(S(=O)(=O)Oc3ccc(OC)cc3)cc2)C1=O	> 12500 nM	–
–	–	CCCCN1CCN(c2ccc(S(=O)(=O)Oc3cc(OC)cc(OC)c3)cc2)C1=O	–	half-life [6]: 93 min; half-life [7]: 67 min; half-life [8]: 10.5 min; microsomal CLint [9]: 15 µL/min/mg; microsomal CLint [10]: 20.7 µL/min/mg; microsomal CLint [11]: 133 µL/min/mg
> 25000 nM	> 25000 nM	CCCCCN1CCN(c2ccc(S(=O)(=O)Oc3ccccc3)cc2)C1=O	> 25000 nM	–
> 2500 nM	> 2500 nM	CCCCCCCCN1CCN(c2ccc(S(=O)(=O)Oc3cccc(OC)c3)cc2)C1=O	> 2500 nM	–
> 1250 nM	> 1250 nM	CCCCCCCCN1CCN(c2ccc(S(=O)(=O)Oc3ccc(OC)cc3)cc2)C1=O	> 1250 nM	–
> 2500 nM	> 2500 nM	CCCCCCN1CCN(c2ccc(S(=O)(=O)Oc3cccc(OC)c3)cc2)C1=O	> 2500 nM	–
> 1250 nM	> 1250 nM	CCCCCCCCN1CCN(c2ccc(S(=O)(=O)Oc3cccc(F)c3)cc2)C1=O	> 1250 nM	–
> 1250 nM	> 1250 nM	CCCCCCCCN1CCN(c2ccc(S(=O)(=O)Oc3cc(Br)cc(Br)c3)cc2)C1=O	> 1250 nM	–
> 1250 nM	> 1250 nM	CCCCCCN1CCN(c2ccc(S(=O)(=O)Oc3cc(OC)cc(OC)c3)cc2)C1=O	> 1250 nM	–
> 1250 nM	> 1250 nM	CCCCCCCCN1CCN(c2ccc(S(=O)(=O)Oc3cc(Cl)cc(Cl)c3)cc2)C1=O	> 1250 nM	–
> 1250 nM	> 1250 nM	CCCCCCCCN1CCN(c2ccc(S(=O)(=O)Oc3ccc(OC)c(OC)c3)cc2)C1=O	> 1250 nM	–
1800 nM	> 2500 nM	CCCCCCN1CCN(c2ccc(S(=O)(=O)Oc3cccc(Cl)c3)cc2)C1=O	> 2500 nM	Ratio IC50 [4]: >1.4; Ratio IC50 [5]: >1.4
> 2500 nM	> 2500 nM	CCCCCCCCN1CCN(c2ccc(S(=O)(=O)Oc3ccccc3OC)cc2)C1=O	> 2500 nM	–
> 12500 nM	> 12500 nM	CCCCCN1CCN(c2ccc(S(=O)(=O)Oc3ccc(F)c(F)c3)cc2)C1=O	> 12500 nM	–
> 1250 nM	> 1250 nM	CCCCCCCCN1CCN(c2ccc(S(=O)(=O)Oc3cccc(I)c3)cc2)C1=O	> 1250 nM	–
140 nM	> 2500 nM	CCCCCCN1CCN(c2ccc(S(=O)(=O)Oc3cc(OC)c(OC)c(OC)c3)cc2)C1=O	> 2500 nM	Ratio IC50 [4]: >18; Ratio IC50 [5]: >18
> 2500 nM	> 2500 nM	CCCCCCN1CCN(c2ccc(S(=O)(=O)Oc3ccccc3OC)cc2)C1=O	> 2500 nM	–
–	–	O=c1cc(-c2ccccc2)oc2c1ccc1ccccc12 [ALPHA-NAPHTHOFLAVONE]	–	Ki [12]: 50 nM
> 2500 nM	> 2500 nM	CCCCCCN1CCN(c2ccc(S(=O)(=O)Oc3cccc(F)c3)cc2)C1=O	> 2500 nM	–
> 500 nM	> 500 nM	CCCCCN1CCN(c2ccc(S(=O)(=O)Oc3cc(Br)cc(Br)c3)cc2)C1=O	> 500 nM	–
